Test results reported in ChEMBL document CHEMBL3045169, “In vitro evaluation of the antibacterial and antifungal activity of some new pyrazolyl-quinazolin-4(3H)-one derivatives” (2012).

Experiments:
Assay type in all cases: functional
[1] = test system: Escherichia coli; experiment: Antibacterial activity against Escherichia coli ATCC 25922 at 50 ug/ml by agar cup-plate method; conditions: read-out: IZ
[2] = test system: Bacillus subtilis; experiment: Antibacterial activity against Bacillus subtilis ATCC 6633 at 100 ug/ml by agar cup plate method; conditions: read-out: IZ
[3] = test system: Staphylococcus aureus; experiment: Antibacterial activity against Staphylococcus aureus ATCC 9144 at 50 ug/ml by agar cup-plate method; conditions: read-out: IZ
[4] = test system: Bacillus subtilis; experiment: Antibacterial activity against Bacillus subtilis ATCC 6633 at 50 ug/ml by agar cup plate method; conditions: read-out: IZ
[5] = test system: Candida albicans; experiment: Antifungal activity against Candida albicans ATCC 10231 at 10 ug/ml by agar cup-plate method; conditions: read-out: IZ
[6] = test system: Pseudomonas aeruginosa; experiment: Antibacterial activity against Pseudomonas aeruginosa ATCC 9027 by agar cup-plate method relative to penicillin-G; parameters: concentration or dose not given beside the values
[7] = test system: Candida albicans; experiment: Antifungal activity against Candida albicans ATCC 10231 by agar cup-plate method relative to fluconazole; parameters: concentration or dose not given beside the values
[8] = test system: Staphylococcus aureus; experiment: Antibacterial activity against Staphylococcus aureus ATCC 9144 by agar cup-plate method relative to penicillin-G; parameters: concentration or dose not given beside the values
[9] = test system: Escherichia coli; experiment: Antibacterial activity against Escherichia coli ATCC 25922 by agar cup-plate method relative to penicillin-G; parameters: concentration or dose not given beside the values
[10] = test system: Pseudomonas aeruginosa; experiment: Antibacterial activity against Pseudomonas aeruginosa ATCC 9027 at 50 ug/ml by agar cup-plate method; conditions: read-out: IZ
[11] = test system: Bacillus subtilis; experiment: Antibacterial activity against Bacillus subtilis ATCC 6633 by agar cup plate method relative to penicillin-G; parameters: concentration or dose not given beside the values
[12] = test system: Pseudomonas aeruginosa; experiment: Antibacterial activity against Pseudomonas aeruginosa ATCC 9027 at 100 ug/ml by agar cup-plate method; conditions: read-out: IZ
[13] = test system: Aspergillus niger; experiment: Antifungal activity against Aspergillus niger ATCC 6275 by agar cup-plate method relative to fluconazole; parameters: concentration or dose not given beside the values
[14] = test system: Staphylococcus aureus; experiment: Antibacterial activity against Staphylococcus aureus ATCC 9144 at 100 ug/ml by agar cup-plate method; conditions: read-out: IZ
[15] = test system: Candida albicans; experiment: Antifungal activity against Candida albicans ATCC 10231 at 20 ug/ml by agar cup-plate method; conditions: read-out: IZ
[16] = test system: Escherichia coli; experiment: Antibacterial activity against Escherichia coli ATCC 25922 at 100 ug/ml by agar cup-plate method; conditions: read-out: IZ
[17] = test system: Aspergillus niger; experiment: Antifungal activity against Aspergillus niger ATCC 6275 at 20 ug/ml by agar cup-plate method; conditions: read-out: IZ
[18] = test system: Aspergillus niger; experiment: Antifungal activity against Aspergillus niger ATCC 6275 at 10 ug/ml by agar cup-plate method; conditions: read-out: IZ

Structure (SMILES)	zone of inhibition at 50 µg/mL [1] [mm]	zone of inhibition at 100 µg/mL [2] [mm]	zone of inhibition at 50 µg/mL [3] [mm]	zone of inhibition at 50 µg/mL [4] [mm]	zone of inhibition at 10 µg/mL [5] [mm]	Activity [6] [%]	Activity [7] [%]	Activity [8] [%]	Activity [9] [%]	zone of inhibition at 50 µg/mL [10] [mm]	Activity [11] [%]	zone of inhibition at 100 µg/mL [12] [mm]	Activity [13] [%]	zone of inhibition at 100 µg/mL [14] [mm]	zone of inhibition at 20 µg/mL [15] [mm]	zone of inhibition at 100 µg/mL [16] [mm]	zone of inhibition at 20 µg/mL [17] [mm]	zone of inhibition at 10 µg/mL [18] [mm]
O=c1c2cc(I)ccc2nc(Cc2ccccc2Nc2ccccc2)n1NC1=NNC(c2ccccc2O)C1 (stereo not drawn)	7	11	8	9	9	39.56	49.95	38.15	34.11	8	41.49	10	38.11	10	12	9	10	8
O=c1c2cc(I)ccc2nc(Cc2ccccc2Nc2ccccc2)n1NC1=NNC(c2cccc(O)c2)C1 (stereo not drawn)	7	13	10	11	0	39.56	49.07	42.34	34.11	8	47.05	10	45.04	12	7	9	7	0
O=c1c2cc(I)ccc2nc(Cc2ccccc2Nc2ccccc2)n1NC1=NNC(c2ccc(O)cc2)C1 (stereo not drawn)	6	11	8	9	13	37.4	56.01	38.15	32.33	7	41.49	9	51.18	10	15	8	14	11
O=c1c2cc(I)ccc2nc(Cc2ccccc2Nc2ccccc2)n1NC1=NNC(c2ccccc2Cl)C1 (stereo not drawn)	0	7	0	0	17	48.61	76.62	44.39	44.45	0	45.27	7	66.9	6	20	7	19	16
O=c1c2cc(I)ccc2nc(Cc2ccccc2Nc2ccccc2)n1NC1=NNC(c2cccc(Cl)c2)C1 (stereo not drawn)	0	6	0	0	14	44.72	59.53	44.39	40.81	0	41.49	6	53.99	6	16	6	15	12
O=c1c2cc(I)ccc2nc(Cc2ccccc2Nc2ccccc2)n1NC1=NNC(c2ccc(Cl)cc2)C1 (stereo not drawn)	0	6	0	0	16	48.61	67.26	44.39	40.81	0	41.49	7	58.12	6	18	6	17	15
O=c1c2cc(I)ccc2nc(Cc2ccccc2Nc2ccccc2)n1NC1=NNC(c2ccccc2[N+](=O)[O-])C1 (stereo not drawn)	11	17	13	13	15	55.43	68.81	55.29	47.67	12	63.61	15	58.12	16	18	14	17	15
O=c1c2cc(I)ccc2nc(Cc2ccccc2Nc2ccccc2)n1NC1=NNC(c2cccc([N+](=O)[O-])c2)C1 (stereo not drawn)	15	14	12	11	13	67.47	56.01	52.83	62.3	16	52.61	19	51.18	15	15	19	14	11
O=c1c2cc(I)ccc2nc(Cc2ccccc2Nc2ccccc2)n1NC1=NNC(c2ccc([N+](=O)[O-])cc2)C1 (stereo not drawn)	12	16	11	13	14	61.15	59.53	55.57	54.75	14	58.83	17	51.52	15	16	16	15	13
COc1ccccc1C1CC(Nn2c(Cc3ccccc3Nc3ccccc3)nc3ccc(I)cc3c2=O)=NN1 (stereo not drawn)	13	10	7	8	0	63.19	45.11	36.21	52.45	13	38.97	17	41.3	9	6	16	6	0
COc1ccc(C2CC(Nn3c(Cc4ccccc4Nc4ccccc4)nc4ccc(I)cc4c3=O)=NN2)cc1 (stereo not drawn)	15	11	8	9	0	68.97	49.07	38.15	57.71	15	41.49	19	45.04	10	7	18	7	0
CN(C)c1ccc(C2CC(Nn3c(Cc4ccccc4Nc4ccccc4)nc4ccc(I)cc4c3=O)=NN2)cc1 (stereo not drawn)	0	7	0	0	15	48.61	68.81	48.23	40.81	0	45.27	7	60.1	7	18	6	17	14
OC(Cn1cncn1)(Cn1cncn1)c1ccc(F)cc1F [FLUCONAZOLE]	–	–	–	–	21	–	–	–	–	–	–	–	–	–	26	–	28	22
CC1(C)S[C@@H]2[C@H](NC(=O)Cc3ccccc3)C(=O)N2[C@H]1C(=O)O [PENICILLIN G]	25	27	25	21	–	–	–	–	–	23	–	28	–	30	–	31	–	–
